In PubChem BioAssay AID2060906 (Molecular Pharmacology Branch, DTP, NCI, 2025):

Tested on: 485176-168-R4-J1-PDC complex spheroid growth
Experiment: Anticancer human tumor 485176-168-R4-J1-PDC patient-derived pancreatic adenocarcinoma cell line growth inhibition [RAS]
Settings: for IC50: curve of first compound; for viability, T/C: stronger effect = lower value; active = viability on the fitted dose curve at most 10% of control; inactive = the rest
How it was run: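 Tumour cells grown as complex spheroids with HUVEC endothelial cells and mesenchymal stem cells, treated with RAS pathway inhibitor combinations. Each agent spans half-log steps from near clinical Cmax, or 10 microM where Cmax is unknown.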

[1] = second compound 0.000949 µM, first compound 0.00316 µM
[2] = second compound 0.000949 µM, first compound 0.01 µM
[3] = second compound 0.000949 µM, first compound 0.0316 µM
[4] = second compound 0.000949 µM, first compound 0.1 µM
[5] = second compound 0.000949 µM, first compound 0.316 µM
[6] = second compound 0.000949 µM, first compound 1 µM
[7] = second compound 0.003 µM, first compound 0.00316 µM
[8] = second compound 0.003 µM, first compound 0.01 µM
[9] = second compound 0.003 µM, first compound 0.0316 µM
[10] = second compound 0.003 µM, first compound 0.1 µM
[11] = second compound 0.003 µM, first compound 0.316 µM
[12] = second compound 0.003 µM, first compound 1 µM
[13] = second compound 0.00949 µM, first compound 0.00316 µM
[14] = second compound 0.00949 µM, first compound 0.01 µM
[15] = second compound 0.00949 µM, first compound 0.0316 µM
[16] = second compound 0.00949 µM, first compound 0.1 µM
[17] = second compound 0.00949 µM, first compound 0.316 µM
[18] = second compound 0.00949 µM, first compound 1 µM
[19] = second compound 0.03 µM, first compound 0.00316 µM
[20] = second compound 0.03 µM, first compound 0.01 µM
[21] = second compound 0.03 µM, first compound 0.0316 µM
[22] = second compound 0.03 µM, first compound 0.1 µM
[23] = second compound 0.03 µM, first compound 0.316 µM
[24] = second compound 0.03 µM, first compound 1 µM
[25] = second compound 0.0949 µM, first compound 0.00316 µM
[26] = second compound 0.0949 µM, first compound 0.01 µM
[27] = second compound 0.0949 µM, first compound 0.0316 µM
[28] = second compound 0.0949 µM, first compound 0.1 µM
[29] = second compound 0.0949 µM, first compound 0.316 µM
[30] = second compound 0.0949 µM, first compound 1 µM
[31] = second compound 0.3 µM, first compound 0.00316 µM
[32] = second compound 0.3 µM, first compound 0.01 µM
[33] = second compound 0.3 µM, first compound 0.0316 µM
[34] = second compound 0.3 µM, first compound 0.1 µM
[35] = second compound 0.3 µM, first compound 0.316 µM
[36] = second compound 0.3 µM, first compound 1 µM
[37] = second compound 0.000949 µM, first compound 3.16 µM
[38] = second compound 0.000949 µM, first compound 10 µM
[39] = second compound 0.003 µM, first compound 3.16 µM
[40] = second compound 0.003 µM, first compound 10 µM
[41] = second compound 0.00949 µM, first compound 3.16 µM
[42] = second compound 0.00949 µM, first compound 10 µM
[43] = second compound 0.03 µM, first compound 3.16 µM
[44] = second compound 0.03 µM, first compound 10 µM
[45] = second compound 0.0949 µM, first compound 3.16 µM
[46] = second compound 0.0949 µM, first compound 10 µM
[47] = second compound 0.3 µM, first compound 3.16 µM
[48] = second compound 0.3 µM, first compound 10 µM
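Note: spheroids exposed to compounds for seven days before readout.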
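Throughout, for viability, T/C: luminescence viability expressed relative to DMSO vehicle wells set as 100%.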

C=CC(=O)Nc1cc(Nc2nccc(-c3cn(C)c4ccccc34)n2)c(OC)cc1N(C)CCN(C)C + CCn1c(-c2cc(N3CCN(C)CC3)cnc2C(C)OC)c2c3cc(ccc31)-c1csc(n1)CC(NC(=O)C1CC1C)C(=O)N1CCCC(N1)C(=O)OCC(C)(C)C2
> 1 µM: IC50 (second compound 0.000949 µM) | IC50 (second compound 0.003 µM) | IC50 (second compound 0.00949 µM) | IC50 (second compound 0.03 µM) | IC50 (second compound 0.0949 µM) | IC50 (second compound 0.3 µM)
inactive: viability, T/C [1] 88.1% | viability, T/C [2] 91.4% | viability, T/C [3] 95.6% | viability, T/C [4] 89.9% | viability, T/C [5] 79.7% | viability, T/C [6] 69.4% | viability, T/C [7] 92.8% | viability, T/C [8] 80.3% | viability, T/C [9] 78.6% | viability, T/C [10] 76% | viability, T/C [11] 86.4% | viability, T/C [12] 60.5% | viability, T/C [13] 91.8% | viability, T/C [14] 93.3% | viability, T/C [15] 73.7% | viability, T/C [16] 94% | viability, T/C [17] 83.2% | viability, T/C [18] 62.9% | viability, T/C [19] 70% | viability, T/C [20] 87.7% | viability, T/C [21] 85.2% | viability, T/C [22] 90.6% | viability, T/C [23] 63.4% | viability, T/C [24] 57.9% | viability, T/C [25] 77.8% | viability, T/C [26] 83% | viability, T/C [27] 81.2% | viability, T/C [28] 61.9% | viability, T/C [29] 83.3% | viability, T/C [30] 64.3% | viability, T/C [31] 81.6% | viability, T/C [32] 72.9% | viability, T/C [33] 73.4% | viability, T/C [34] 84.2% | viability, T/C [35] 71.4% | viability, T/C [36] 50.2%

CC(C)NCC(C(=O)N1CCN(c2ncnc3c2C(C)CC3O)CC1)c1ccc(Cl)cc1 (stereo not drawn) + CCn1c(-c2cc(N3CCN(C)CC3)cnc2C(C)OC)c2c3cc(ccc31)-c1csc(n1)CC(NC(=O)C1CC1C)C(=O)N1CCCC(N1)C(=O)OCC(C)(C)C2
2.33 µM: IC50 (second compound 0.000949 µM)
1.65 µM: IC50 (second compound 0.00949 µM)
0.79 µM: IC50 (second compound 0.3 µM)
3.71 µM: IC50 (second compound 0.003 µM)
inactive: viability, T/C [3] 116% | viability, T/C [4] 99.5% | viability, T/C [5] 78.7% | viability, T/C [6] 64.8% | viability, T/C [37] 43.6% | viability, T/C [38] 33% | viability, T/C [9] 82.2% | viability, T/C [10] 101% | viability, T/C [11] 74.3% | viability, T/C [12] 65% | viability, T/C [39] 55.1% | viability, T/C [40] 38.8% | viability, T/C [15] 97.9% | viability, T/C [16] 79.7% | viability, T/C [17] 82.4% | viability, T/C [18] 56.8% | viability, T/C [41] 38.7% | viability, T/C [42] 32.3% | viability, T/C [21] 94.7% | viability, T/C [22] 73.8% | viability, T/C [23] 81.2% | viability, T/C [24] 44.4% | viability, T/C [43] 40.5% | viability, T/C [44] 31.7% | viability, T/C [27] 81.3% | viability, T/C [28] 67.9% | viability, T/C [29] 70.3% | viability, T/C [30] 41.3% | viability, T/C [45] 35.5% | viability, T/C [46] 26.8% | viability, T/C [33] 72.2% | viability, T/C [34] 72.1% | viability, T/C [35] 57.5% | viability, T/C [36] 46.4% | viability, T/C [47] 38.4% | viability, T/C [48] 26.8%
0.847 µM: IC50 (second compound 0.03 µM)
0.721 µM: IC50 (second compound 0.0949 µM)

CC(Nc1ccc2c(c1)OCCn1cc(N3C(=O)OCC3C(F)F)nc1-2)C(N)=O (stereo not drawn) + CCn1c(-c2cc(N3CCN(C)CC3)cnc2C(C)OC)c2c3cc(ccc31)-c1csc(n1)CC(NC(=O)C1CC1C)C(=O)N1CCCC(N1)C(=O)OCC(C)(C)C2
inactive: viability, T/C [3] 100% | viability, T/C [4] 91.9% | viability, T/C [5] 71.8% | viability, T/C [6] 79.8% | viability, T/C [37] 70.5% | viability, T/C [38] 51.1% | viability, T/C [9] 92.8% | viability, T/C [10] 74.8% | viability, T/C [11] 73.7% | viability, T/C [12] 72% | viability, T/C [39] 61.3% | viability, T/C [40] 47% | viability, T/C [15] 81.5% | viability, T/C [16] 72.7% | viability, T/C [17] 76.9% | viability, T/C [18] 76.1% | viability, T/C [41] 62.2% | viability, T/C [42] 46.7% | viability, T/C [21] 75.9% | viability, T/C [22] 78.5% | viability, T/C [23] 69.3% | viability, T/C [24] 60.5% | viability, T/C [43] 58% | viability, T/C [44] 48.1% | viability, T/C [27] 66.9% | viability, T/C [28] 83.7% | viability, T/C [29] 77.1% | viability, T/C [30] 51.9% | viability, T/C [45] 56.8% | viability, T/C [46] 41.2% | viability, T/C [33] 75.6% | viability, T/C [34] 72.3% | viability, T/C [35] 57.6% | viability, T/C [36] 57.7% | viability, T/C [47] 51.3% | viability, T/C [48] 51.2%
7.94 µM: IC50 (second compound 0.00949 µM)
> 10 µM: IC50 (second compound 0.000949 µM) | IC50 (second compound 0.003 µM) | IC50 (second compound 0.3 µM)
7.65 µM: IC50 (second compound 0.03 µM)
2.11 µM: IC50 (second compound 0.0949 µM)

O=C(c1ccc(F)c(F)c1Nc1ccc(I)cc1F)N1CC(O)([C@@H]2CCCCN2)C1 + CCn1c(-c2cc(N3CCN(C)CC3)cnc2C(C)OC)c2c3cc(ccc31)-c1csc(n1)CC(NC(=O)C1CC1C)C(=O)N1CCCC(N1)C(=O)OCC(C)(C)C2
< 0.00316 µM: IC50 (second compound 0.3 µM)
0.116 µM: IC50 (second compound 0.000949 µM)
0.033 µM: IC50 (second compound 0.00949 µM)
0.0902 µM: IC50 (second compound 0.003 µM)
inactive: viability, T/C [1] 87.1% | viability, T/C [2] 62.7% | viability, T/C [3] 65.1% | viability, T/C [4] 51% | viability, T/C [5] 43.8% | viability, T/C [6] 34.1% | viability, T/C [7] 85.9% | viability, T/C [8] 75.5% | viability, T/C [9] 63.8% | viability, T/C [10] 48.5% | viability, T/C [11] 38.8% | viability, T/C [12] 35.2% | viability, T/C [13] 75.3% | viability, T/C [14] 56.6% | viability, T/C [15] 51.7% | viability, T/C [16] 45.9% | viability, T/C [17] 36.1% | viability, T/C [18] 35% | viability, T/C [19] 62.5% | viability, T/C [20] 59.3% | viability, T/C [21] 45.2% | viability, T/C [22] 38.8% | viability, T/C [23] 31.3% | viability, T/C [24] 31.4% | viability, T/C [25] 65.4% | viability, T/C [26] 56.9% | viability, T/C [27] 36.5% | viability, T/C [28] 37.2% | viability, T/C [29] 30.9% | viability, T/C [30] 25.7% | viability, T/C [31] 48.6% | viability, T/C [32] 44.4% | viability, T/C [33] 36.6% | viability, T/C [34] 28.6% | viability, T/C [35] 28.8% | viability, T/C [36] 25.9%
0.0145 µM: IC50 (second compound 0.0949 µM)
0.0229 µM: IC50 (second compound 0.03 µM)
